Assay results taken from patent US20120016019A1, “PHARMACEUTICAL COMPOSITION FOR TREATING OR PREVENTING CANCER” (priority 2010, published 2012).
“And” between values parts separate entries of the source, which are not always exact repeats. Identical values can stand only once. Like-named read-outs stand apart in the source and are kept apart here.

Legend:
C-6 = test system: C-6
Method: (§1) Cancer cell lines HCC 1419, MCF-7, MDA-MB-468, SKBR3, PC3, HT1299, Saos-2, C-6, AsPc, MDA-MB-231, RKO, HeLa and TT, and normal cell lines HME 50 HT, BJ and CCD-1074sk were tested for changes in metabolism (XTT assay) and cell death (cell counts).
(§2) Cells were plated into 48-well Corning CellBind™ plates at densities of 20,000 cells for normal cells and 10,000˜20,000 cells for cancer cells. 24 to 48 h after plating, cells were treated with the composition according to the invention at concentrations of 4.5e-2M. The first time point treated with the composition of the invention is 0 h. At 3 days after the first treatment with the composition of the invention, medium was changed and the composition of the invention at the same concentrations were added to the cultured cells.
(§3) The XTT assay is an accepted analysis technique for viability and cytotoxicity of anticancer drugs or other pharmaceutical compositions. Cells were seeded in a 96-well tissue culture plate at a density of 10,000 cells for normal cells and 5,000 cells for cancer cells. After incubation period, the formazan dye formed was quantitated using an ELISA reader. The optimal wavelength used in experiments was 500 nm, and it was measured at 0 h, 12 h, 24 h, 48 h, 4 d and 7 d, respectively. The obtained values were generated using the software SoftMax Pro 4.8.
(§4) The cell viability was calculated according to the manufacturer's instructions as follows (the term “blank” means XTT in medium only):
(§5) Cellular cytotoxicity was calculated according to the manufacturer's instructions as follows: […]

HT 1299 = conditions: for The cytotoxicity / The viability: 220 nM; for The absorbance / The absorbance, Mean value / The absorbance, group - Blank: HT 1299
Method: as §1, §2, §3, §4, §5

[1] = XTT 500 nm, 2nd week (recovery), 0 h
[2] = XTT 500 nm, 2nd week (recovery), 24 h
[3] = XTT 500 nm, 2nd week (recovery), 48 h
[4] = XTT 500 nm, 2nd week (recovery), 4 d

`CC(=O)O[C@H]1C(=O)[C@@]2(C)[C@H]([C@H](OC(=O)c3ccccc3)[C@]3(O)C[C@H](OC(=O)[C@H](O)[C@@H](NC(=O)c4ccccc4)c4ccccc4)C(C)=C1C3(C)C)[C@]1(OC(C)=O)CO[C@@H]1C[C@@H]2O` [Taxol] was tested, and the “The absorbance, group - Blank” value (C-6; C-6, 2nd week (recovery), 0 h) was 2.0945, the The absorbance (C-6; C-6, 2nd week (recovery), 24 h) was 1.9908 and 2.3106 and 2.2634 and the “The absorbance, Mean value” (C-6; C-6, 2nd week (recovery), 24 h) was 2.1883. For the same compound, the “The absorbance, group - Blank” value (C-6; C-6, 2nd week (recovery), 24 h) was 1.6659, the The absorbance (C-6; C-6, 2nd week (recovery), 48 h) was 3.111 and 2.4572 and 2.7053 and the “The absorbance, Mean value” (C-6; C-6, 2nd week (recovery), 48 h) was 2.7578. For the same compound, the “The absorbance, group - Blank” value (C-6; C-6, 2nd week (recovery), 48 h) was 2.2355, the The absorbance (C-6; C-6, 2nd week (recovery), 4 d) was 2.6888 and 2.7862 and 2.8075 and the “The absorbance, Mean value” (C-6; C-6, 2nd week (recovery), 4 d) was 2.7608. The “The absorbance, group - Blank” value (C-6; C-6, 2nd week (recovery), 4 d) was 2.2385, the The viability (C-6; C-6, 2nd week (recovery), 4 d) was 0.8937 and the The absorbance (C-6; C-6, 2nd week (recovery), 7 d) was 2.4639 and 2.1497 and 2.4909. For the same compound, the “The absorbance, Mean value” (C-6; C-6, 2nd week (recovery), 7 d) was 2.3682, the “The absorbance, group - Blank” value (C-6; C-6, 2nd week (recovery), 7 d) was 1.8458 and the The cytotoxicity (C-6; rat, 12 h, 220 nM) was 0.1898. It also gave a The viability (C-6; rat, 12 h, 220 nM) of 0.8102, a The viability (C-6; rat, 4 d, 220 nM) of 0.8804 and a The cytotoxicity (HT 1299; 0 h) of 0.0206. The The viability (HT 1299; 0 h) was 0.9794, the The cytotoxicity (HT 1299; 12 h) was 0.0709 and the The viability (HT 1299; 12 h) was 0.9291. The The cytotoxicity (HT 1299; 24 h) was 0.0409, the The viability (HT 1299; 24 h) was 0.9591 and the The cytotoxicity (HT 1299; 48 h) was 0.0368. For the same compound, the The viability (HT 1299; 48 h) was 0.9632, the The viability (HT 1299; 4 d) was 0.8406 and the The viability (HT 1299; 7 d) was 0.3389. The The absorbance (HT 1299; 1st week (LC50), 0 h) was 2.7643 and 2.716 and 2.6703, the “The absorbance, Mean value” (HT 1299; 1st week (LC50), 0 h) was 2.7169 and the “The absorbance, group - Blank” value (HT 1299; 1st week (LC50), 0 h) was 2.5063. The The absorbance (HT 1299; 1st week (LC50), 12 h) was 2.8939 and 2.8933 and 2.8787, the “The absorbance, Mean value” (HT 1299; 1st week (LC50), 12 h) was 2.8886 and the “The absorbance, group - Blank” value (HT 1299; 1st week (LC50), 12 h) was 2.6781. The The absorbance (HT 1299; 1st week (LC50), 24 h) was 2.7759 and 2.8539 and 2.8128, the “The absorbance, Mean value” (HT 1299; 1st week (LC50), 24 h) was 2.8142 and the “The absorbance, group - Blank” value (HT 1299; 1st week (LC50), 24 h) was 2.6036. The The absorbance (HT 1299; 1st week (LC50), 48 h) was 2.5408 and 2.6225 and 2.6333, the “The absorbance, Mean value” (HT 1299; 1st week (LC50), 48 h) was 2.5989 and the “The absorbance, group - Blank” value (HT 1299; 1st week (LC50), 48 h) was 2.3883. The The absorbance (HT 1299; 1st week (LC50), 4 d) was 2.817 and 2.6791 and 2.5786, the “The absorbance, Mean value” (HT 1299; 1st week (LC50), 4 d) was 2.6916 and the “The absorbance, group - Blank” value (HT 1299; 1st week (LC50), 4 d) was 2.4810. For the same compound, the The absorbance (HT 1299; 1st week (LC50), 7 d) was 1.504, the “The absorbance, group - Blank” value (HT 1299; 1st week (LC50), 7 d) was 1.0771 and the “The absorbance, Mean value” (HT 1299; [1]) was 2.0676. For the same compound, the “The absorbance, group - Blank” value (HT 1299; [1]) was 1.7954, the The absorbance (HT 1299; XTT 500 nm, 2nd week (recovery), 0 h, single wells) was 1.9675 and 1.8392 and 2.3962 and the “The absorbance, Mean value” (HT 1299; [2]) was 2.6177. The “The absorbance, group - Blank” value (HT 1299; [2]) was 2.3455, the The absorbance (HT 1299; XTT 500 nm, 2nd week (recovery), 24 h, single wells) was 2.6918 and 2.5521 and 2.6093 and the “The absorbance, Mean value” (HT 1299; [3]) was 2.4695. The “The absorbance, group - Blank” value (HT 1299; [3]) was 2.1973, the “The absorbance, Mean value” (HT 1299; [4]) was 2.3404 and the “The absorbance, group - Blank” value (HT 1299; [4]) was 2.0681. The The absorbance (HT 1299; XTT 500 nm, 2nd week (recovery), 4 d, single wells) was 2.6902 and 1.9256 and 2.4054, the The cytotoxicity (HT 1299; human, 0 h) was 0.2984 and the The viability (HT 1299; human, 0 h) was 0.7016. For the same compound, the The cytotoxicity (HT 1299; human, 24 h) was 0.1360, the The viability (HT 1299; human, 24 h) was 0.8640 and the The cytotoxicity (HT 1299; human, 48 h) was 0.1139. For the same compound, the The viability (HT 1299; human, 48 h) was 0.8861, the The viability (HT 1299; human, 4 d) was 0.7007 and the The cytotoxicity (HT 1299; human, 7 d) was 0.6611.
